Source: patent US7282486B2, “Crystal forms of azithromycin” (Pfizer Inc, priority 2001, dated 2007)

Legend:
[1] = Heating of form A: variable temperature powder X-ray diffraction (VT-PXRD) and TGA; type: physicochemical
[2] = Dehydration/desolvation temperatures determined by DSC; type: physicochemical; details: DSC analysis at 5° C./min from 30-300° C.
Protocol: Dehydration/desolvation temperatures were determined by DSC with a heating rate of 5° C./min.

With `CCC1OC(=O)C(C)C(O[C@H]2C[C@@](C)(OC)[C@@H](O)C(C)O2)C(C)[C@@H](OC2OC(C)CC(N(C)C)[C@H]2O)C(C)(O)C[C@@H](C)CN(C)[C@H](C)[C@@H](O)[C@]1(C)O` (stereo in doubt) [Form L] the “stability of form when cooled to ambient temperature” value ([1]; cooled to ambient temperature after heating form A to about 90° C.) was “rapidly reverts to form A”.
In the case of `CC[C@H]1OC(=O)[C@H](C)[C@@H](O[C@H]2C[C@@](C)(OC)[C@@H](O)[C@H](C)O2)[C@H](C)[C@@H](O[C@@H]2O[C@H](C)C[C@H](N(C)C)[C@H]2O)[C@](C)(O)C[C@@H](C)CN(C)[C@H](C)[C@@H](O)[C@]1(C)O` [Form A, azithromycin dihydrate], the “weight loss by TGA” value ([1]; at 90° C.) is reported as “about 2.5 weight %” and the “temperature of solid-state conversion of form A to form L” value ([1]; heating, VT-PXRD) is reported as “about 90 °C”.
With `CCC1OC(=O)C(C)C(O[C@H]2C[C@@](C)(OC)[C@@H](O)C(C)O2)C(C)[C@@H](OC2OC(C)CC(N(C)C)[C@H]2O)[C@@](C)(O)C[C@@H](C)CN(C)[C@H](C)[C@@H](O)[C@]1(C)O` (stereo partly shown) [Form D, azithromycin monohydrate monocyclohexane solvate] the “broad endotherm (decomposition)” value [2] was 200-280 °C.
